# From patent publication US20260007684A1, “AMIDE DERIVATIVES FOR INHIBITING NLRP3 AND USES THEREOF” (Ventus Therapeutics U.S., Inc., priority 2023, published 2026)
# Molecular target: human NLRP3 (Homo sapiens (Human), UniProt Q96P20)
# Experiment: Scintillation Proximity (SPA) NLRP3 Assay: displacement of 3H-MCC950
# Format: binding
# Details: SPA IC50, displacement of 3H-MCC950
# human NLRP3, sequence (Q96P20 whole entry): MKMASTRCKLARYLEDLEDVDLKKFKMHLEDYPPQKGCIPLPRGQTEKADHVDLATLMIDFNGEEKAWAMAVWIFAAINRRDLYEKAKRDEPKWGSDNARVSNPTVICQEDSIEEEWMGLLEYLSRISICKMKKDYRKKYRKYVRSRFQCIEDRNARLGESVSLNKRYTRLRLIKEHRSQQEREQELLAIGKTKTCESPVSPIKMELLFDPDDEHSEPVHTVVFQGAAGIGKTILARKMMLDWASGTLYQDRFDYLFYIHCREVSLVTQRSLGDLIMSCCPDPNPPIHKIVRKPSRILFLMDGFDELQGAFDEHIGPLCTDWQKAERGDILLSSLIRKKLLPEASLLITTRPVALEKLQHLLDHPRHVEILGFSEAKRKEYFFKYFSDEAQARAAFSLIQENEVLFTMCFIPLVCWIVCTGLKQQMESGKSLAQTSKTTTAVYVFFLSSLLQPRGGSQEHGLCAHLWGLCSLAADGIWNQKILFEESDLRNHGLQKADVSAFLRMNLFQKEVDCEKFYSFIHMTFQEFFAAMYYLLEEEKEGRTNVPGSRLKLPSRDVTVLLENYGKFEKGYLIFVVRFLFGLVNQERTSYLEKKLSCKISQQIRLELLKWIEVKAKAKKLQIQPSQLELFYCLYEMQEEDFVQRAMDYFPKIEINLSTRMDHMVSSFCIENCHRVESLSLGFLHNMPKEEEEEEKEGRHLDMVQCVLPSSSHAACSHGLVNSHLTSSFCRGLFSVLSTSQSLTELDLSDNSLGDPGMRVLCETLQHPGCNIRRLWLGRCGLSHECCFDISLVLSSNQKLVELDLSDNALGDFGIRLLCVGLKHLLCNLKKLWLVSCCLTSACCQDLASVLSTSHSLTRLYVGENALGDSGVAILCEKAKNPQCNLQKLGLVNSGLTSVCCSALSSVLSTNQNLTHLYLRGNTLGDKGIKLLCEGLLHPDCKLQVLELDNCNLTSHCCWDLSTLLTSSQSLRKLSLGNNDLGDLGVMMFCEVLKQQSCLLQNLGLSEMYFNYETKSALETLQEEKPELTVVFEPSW
row,SMILES,IC50 [µM]
1,"O=C(N[C@@H]1CCC[C@H]2CC[C@@H]1N2c1nnn[nH]1)C1(c2ccc(Cl)cc2)CC1 (single isomer, unassigned) [9C*, N-(9-(1H-tetrazol-5-yl)-9-azabicyclo[4.2.1]nonan-2-yl)-1-(4-chlorophenyl)cyclopropane-1-carboxamide]",> 100
2,"O=C(NC1CCC[C@H]2CC[C@@H]1N2c1nnn[nH]1)C1(c2ccc(C3CC3)cc2O)CC1 (single isomer, unassigned) [93D*]",1 to 10

# Same assay, conditions: displacement of 3H-MCC950; read-out: SPA IC50
row,SMILES,IC50 [µM]
1,"C[C@]1(NC(=O)C2(c3ccc(Cl)cc3)CC2)CCCN(c2nnn[nH]2)C1 (single isomer, unassigned) [11B*, 1-(4-chlorophenyl)-N-(3-methyl-1-(1H-tetrazol-5-yl)piperidin-3-yl)cyclopropane-1-carboxamide]",> 100
2,"O=C(N[C@@H]1C[C@H](C(F)(F)F)[C@H]2CC[C@@H]1N2c1nnn[nH]1)C1(c2ccc(Cl)cc2)CC1 (single isomer, unassigned) [103C*]",> 100
3,"C[C@@H]1C[C@H](NC(=O)C2(c3ccc(C4CC4)c(F)c3O)CC2)[C@H]2CC[C@@H]1N2c1nnn[nH]1 [83B*, 1-(4-cyclopropy1-3-fluoro-2-hydroxyphenyl)-N-((1R,2S,4R,5S)-4-methyl-8-(1H-tetrazol-5-yl)-8-azabicyclo[3.2.1]octan-2-yl)cyclopropane-1-carboxamide]",10 to 50
4,"C[C@H]1[C@H](NC(=O)C2(c3ccc(Cl)cc3)CC2)CCCN1c1nnn[nH]1 [Compound 40C, 1-(4-chlorophenyl)-N-[(2S,3R)-2-methyl-1-(1H-tetrazol-5-yl)-3-piperidyl]cyclopropanecarboxamide]",> 100
5,"C[C@H]1C[C@H](NC(=O)C2(c3ccc(C(F)(F)F)cc3F)CC2)[C@@H]2CC[C@H]1N2c1nnn[nH]1 [84D*, 1-(2-fluoro-4-(trifluoromethyl)phenyl)-N-((1S,2S,4S,5R)-4-methy1-8-(1H-tetrazol-5-yl)-8-azabicyclo[3.2.1]octan-2-yl)cyclopropane-1-carboxamide]",> 100
6,"C[C@@H]1C[C@H](NC(=O)C2(c3ccc(OC(F)F)cc3)CC2)[C@H]2CC[C@@H]1N2c1nnn[nH]1 (single isomer, unassigned) [35B*]",50 to 100

# The next lines start with the values.
row,IC50 [µM],SMILES
1,> 100,"C[C@H]1CCN(c2nnn[nH]2)C[C@H](NC(=O)C2(c3ccc(Cl)nc3O)CC2)C1 (single isomer, unassigned) [100C*]"
2,50 to 100,"C[C@H]1CCN(c2nnn[nH]2)C[C@H](NC(=O)C2(c3ccc(Cl)cc3Cl)CC2)C1 (single isomer, unassigned) [55C*]"
3,1 to 10,"C[C@H]1CCN(c2nnn[nH]2)C[C@@H](NC(=O)C2(c3ccc(OC(F)F)c(F)c3)CC2)C1 (single isomer, unassigned) [73D*]"
4,1 to 10,"C[C@H]1CCN(c2nnn[nH]2)C[C@@H](NC(=O)C2(c3ccc(Br)cc3)CC2)C1 (single isomer, unassigned) [59D*]"
5,1 to 10,"C[C@@H]1CC[C@H](NC(=O)C2(c3ccc(Cl)cc3O)CC2)CN(c2nnn[nH]2)C1 (single isomer, unassigned) [90D*]"
6,50 to 100,"C[C@H]1CCN(c2nnn[nH]2)C[C@H](NC(=O)C2(c3cnc(Cl)cc3O)CC2)C1 (single isomer, unassigned) [99C*]"
7,> 100,"C[C@H]1CCN(c2nnn[nH]2)C[C@H](NC(=O)C2(c3c(F)cc(Cl)cc3F)CC2)C1 (single isomer, unassigned) [72C*]"
8,10 to 50,"C[C@H]1CCN(c2nnn[nH]2)C[C@H](NC(=O)C2(c3ccc(C(F)(F)F)c(F)c3O)CC2)C1 (single isomer, unassigned) [31C*, 1-(3-fluoro-2-hydroxy-4-(trifluoromethyl)phenyl)-N-(5-methyl-1-(1H-tetrazol-5-yl)azepan-3-yl)cyclopropane-1-carboxamide]"

# Same assay, conditions: read-out: SPA IC50
row,IC50 [µM],SMILES
1,> 500,"Cn1nnc(-c2cccc(NC(=O)C3(c4ccc(Cl)cc4)CC3)c2)n1 [Comparative Example E2, 1-(4-chlorophenyl)-N-(3-(2-methyl-2H-tetrazol-5-yl)phenyl)cyclopropane-1-carboxamide, reference compound]"
